Data from paper PMC4104174 (Journal of the American Chemical Society, 2014).
Like-named read-outs stand apart in the source and are kept apart here.

Tests used:
[1] = molecular target: human carbonic anhydrase II (hCAII) (Homo sapiens, UniProt P00918); assay: hCAII activity assay; type: biochemical
[2] = free ligand acidity; cited from earlier work
hCAII = conditions: cited from earlier work

Molecule	Ki [1]	pKa [2]	also measured
Oc1coccc1=S [TPMA, 3-hydroxy-4H-pyran-4-thione]	1100 ± 200 µM		
Cc1cc(=S)c(O)co1 [ATM, 5-hydroxy-2-methyl-4H-pyran-4-thione]	650 ± 60 µM	7.64	fold more potent (Ki) than TM and TPMA ([1]; ATM vs TM and TPMA, hCAII): roughly 2 fold
Cc1occc(=S)c1O [TM, 3-hydroxy-2-methyl-4H-pyran-4-thione]	1400 ± 200 µM	8.06	
2-mercaptopyridine-N-oxide [1,2-HOPTO]			Ki (hCAII; previously reported): 850 µM
Oc1ccccc1S [2-MP, 2-mercaptophenol]			Ki (hCAII): 3 ± 0.7 µM
